# Measured values as given in patent US11236060B2, “Method for producing solid dispersion containing nobiletin” (KAO CORPORATION, priority 2018, dated 2022).
# Test: Solubility in 25° C. water of the poorly water-soluble substance
# Type: physicochemical
# Conditions: poorly water-soluble substance itself (ingredient)
row,Solubility in 25° C. water [ppm],Compound
1,4,"O=c1oc2c(O)c(O)cc3c(=O)oc4c(O)c(O)cc1c4c23 [Ellagic acid, ellagic acid]"
2,1,"COc1ccc(-c2cc(=O)c3c(OC)c(OC)c(OC)c(OC)c3o2)cc1OC [Nobiletin, 3′,4′,5,6,7,8-hexamethoxyflavone]"
